The text below walks through data of patent US11780901B2, “Analogues of parathyroid hormone (1-34) that function as agonists of the parathyroid hormone receptor-1 and display modified activity profiles” (Wisconsin Alumni Research Foundation, priority 2013, dated 2023).

Structures are written as SMILES. Where two headings read alike, the source gives them in different places. Starred links: 1 amine or outer side, 2 acyl side, 3 side chain; linkers in the order of their positions; H or OH if unused. Non-standard residues stand in square brackets, D forms with d. Residues, ends and D or L forms follow the SMILES beside them. *: point of attachment. X6 = O=C(O)CC[C@H](CN[*:1])C(=O)[*:2]; X8 = NC[C@@H](CO)C(=O)* Bounds are passed on as bounds.

The target in one experiment is T1, PTHR1 (Homo sapiens, UniProt Q03431).
T1 sequence (Q03431 27-593): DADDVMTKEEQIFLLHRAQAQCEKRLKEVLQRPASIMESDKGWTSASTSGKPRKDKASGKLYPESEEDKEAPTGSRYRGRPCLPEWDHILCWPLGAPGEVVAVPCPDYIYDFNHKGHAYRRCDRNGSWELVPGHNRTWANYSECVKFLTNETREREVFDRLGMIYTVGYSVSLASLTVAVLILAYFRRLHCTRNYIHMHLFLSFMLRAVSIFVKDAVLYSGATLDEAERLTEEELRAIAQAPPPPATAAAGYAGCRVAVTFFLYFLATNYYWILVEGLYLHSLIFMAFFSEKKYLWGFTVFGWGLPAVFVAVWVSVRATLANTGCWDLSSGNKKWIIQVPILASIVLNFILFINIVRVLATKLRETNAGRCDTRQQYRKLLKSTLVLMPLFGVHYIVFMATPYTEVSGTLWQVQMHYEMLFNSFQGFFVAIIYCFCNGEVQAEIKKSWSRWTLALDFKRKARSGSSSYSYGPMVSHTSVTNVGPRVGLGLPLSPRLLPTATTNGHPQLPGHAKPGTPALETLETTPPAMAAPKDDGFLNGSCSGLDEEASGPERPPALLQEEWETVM
As to the kind of experiment: PTHR1 activation, cAMP production (GloSensor) in HEK293 cells. It is filed as cell-based. On the set-up: expressed in transfected cells. The settings on record: for PTHR1 Activation: Derivative EC50/PTH EC50: normalized to EC50 of PTH(1-34)-NH2 ([…]), cAMP production. From the text:
The assays employ HEK-293 cells that have been engineered to express the appropriate receptor. GloSensor-based detection of cAMP provides a read-out of receptor activation.
For PTHR1 activation and all the binding data, data represent mean±s.e.m from three independent measurements; For PTHR2 activation, data represent mean±s.e.m from four independent measurements. Curves were fit to the data using a four-parameter sigmoidal dose-response equation.
For cAMP dose-response assays, monolayers of confluent HEK 293 cells were pre-incubated with buffer containing d-luciferin (0.5 mM) in 96 well plates at room temperature until a stable baseline level of luminescence was established (30 min). Varying concentrations of agonist were then added, and the time course of luminescence response was recorded using a Perkin Elmer plate reader following α/β-peptide addition.

The target in the next experiment is PTHR2 (Homo sapiens, UniProt P49190). As to the kind of experiment: PTHR2 activation, cAMP production (GloSensor) in HEK293 cells. It counts as cell-based. The settings on record: for EC50: HEK-293 cells, GloSensor cAMP, read-out: EC50 (nM) of PTHR2 Activation; for PTHR2 Activation: Derivative EC50/PTH EC50: normalized to EC50 of PTH(1-34)-NH2 ([…] printed), cAMP production. More on the design: expressed in transfected cells; key to PTHR2 Activation: Derivative EC50/PTH EC50: *** denotes poor tolerance of β amino acid for PTHR2 activation. From the text: The assays employ HEK-293 cells that have been engineered to express the appropriate receptor. GloSensor-based detection of cAMP provides a read-out of receptor activation. […] (Carter, P. H. et al. Actions of the Small Molecule Ligands SW106 and AH-3960 on the Type-1 Parathyroid Hormone Receptor. Molecular Endocrinology 29, 307-321 (2015).)
Sequence of PTHR2 (P49190 25-550): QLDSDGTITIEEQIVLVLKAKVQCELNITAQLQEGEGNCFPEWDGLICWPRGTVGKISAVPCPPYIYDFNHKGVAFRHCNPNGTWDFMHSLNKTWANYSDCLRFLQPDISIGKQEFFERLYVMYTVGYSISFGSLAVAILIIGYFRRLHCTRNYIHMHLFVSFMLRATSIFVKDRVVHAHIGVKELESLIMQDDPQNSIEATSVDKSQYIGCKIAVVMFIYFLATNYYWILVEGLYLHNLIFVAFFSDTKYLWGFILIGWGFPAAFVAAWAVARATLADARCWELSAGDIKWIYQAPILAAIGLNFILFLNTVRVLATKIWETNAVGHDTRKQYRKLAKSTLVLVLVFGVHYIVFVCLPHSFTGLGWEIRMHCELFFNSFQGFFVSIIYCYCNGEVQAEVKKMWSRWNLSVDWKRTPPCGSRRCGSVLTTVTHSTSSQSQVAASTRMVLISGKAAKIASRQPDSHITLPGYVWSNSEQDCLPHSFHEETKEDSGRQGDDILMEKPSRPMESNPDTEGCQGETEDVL
FIGS. 10A and 10B depict dose-response curves of PTHR1 activation (FIG. 10A) and PTHR2 activation (FIG. 10B) in HEK293 cells stably expressing PTHR1 or PTHR2. For PTHR1 activation and all the binding data, data represent mean±s.e.m from three independent measurements; For PTHR2 activation, data represent mean±s.e.m from four independent measurements. Curves were fit to the data using a four-parameter sigmoidal dose-response equation.

Where [1] appears, read: HEK-293 cells, GloSensor cAMP, read-out: EC50 (nM) of PTHR1 Activation.

On to `CC[C@H](C)[C@H](NC(=O)[C@H](CCC(=O)O)NC(=O)[C@H](CO)NC(=O)[C@H](CNC(=O)[C@@H](N)CO)C(C)C)C(=O)N[C@@H](CCC(N)=O)C(=O)N[C@@H](CC(C)C)C(=O)N[C@@H](CCSC)C(=O)N[C@@H](Cc1c[nH]cn1)C(=O)N[C@@H](CC(N)=O)C(=O)N[C@@H](CC(C)C)C(=O)NCC(=O)N[C@@H](CCCCN)C(=O)N[C@@H](Cc1c[nH]cn1)C(=O)N[C@@H](CC(C)C)C(=O)N[C@@H](CC(N)=O)C(=O)N[C@@H](CO)C(=O)N[C@@H](CCSC)C(=O)N[C@@H](CCC(=O)O)C(=O)N[C@@H](CCCNC(=N)N)C(=O)N[C@H](C(=O)N[C@@H](CCC(=O)O)C(=O)N[C@@H](Cc1c[nH]c2ccccc12)C(=O)N[C@@H](CC(C)C)C(=O)N[C@@H](CCCNC(=N)N)C(=O)N[C@@H](CCCCN)C(=O)N[C@@H](CCCCN)C(=O)N[C@@H](CC(C)C)C(=O)N[C@@H](CCC(N)=O)C(=O)N[C@@H](CC(=O)O)C(=O)N[C@H](C(=O)N[C@@H](Cc1c[nH]cn1)C(=O)N[C@@H](CC(N)=O)C(=O)N[C@@H](Cc1ccccc1)C(N)=O)C(C)C)C(C)C` [SEQ. ID. NO: 31], for which the concentration for a half-maximal effect (EC50) at PTHR1 (setting [1]) came out at 6.97 ± 1 nM; at PTHR1 (Table 8, hPTHR1, read-out: PTHR1 EC50), 4.72 ± 1.04 nM; at PTHR2, 4.72 ± 1.04 nM. The “PTHR1 Activation: Derivative EC50/PTH EC50” value on PTHR1 is recorded as 18.34. Also, the “PTHR2 Activation: Derivative EC50/PTH EC50” value at PTHR2 is reported as 5.43.
Consider `CC[C@H](C)[C@H](NC(=O)[C@H](CCC(=O)O)CNC(=O)[C@H](CO)NC(=O)[C@@H](NC(=O)[C@@H](N)CO)C(C)C)C(=O)N[C@@H](CCC(N)=O)C(=O)N[C@@H](CC(C)C)C(=O)N[C@@H](CCSC)C(=O)N[C@@H](Cc1c[nH]cn1)C(=O)N[C@@H](CC(N)=O)C(=O)N[C@@H](CC(C)C)C(=O)NCC(=O)N[C@@H](CCCCN)C(=O)N[C@@H](Cc1c[nH]cn1)C(=O)N[C@@H](CC(C)C)C(=O)N[C@@H](CC(N)=O)C(=O)N[C@@H](CO)C(=O)N[C@@H](CCSC)C(=O)N[C@@H](CCC(=O)O)C(=O)N[C@@H](CCCNC(=N)N)C(=O)N[C@H](C(=O)N[C@@H](CCC(=O)O)C(=O)N[C@@H](Cc1c[nH]c2ccccc12)C(=O)N[C@@H](CC(C)C)C(=O)N[C@@H](CCCNC(=N)N)C(=O)N[C@@H](CCCCN)C(=O)N[C@@H](CCCCN)C(=O)N[C@@H](CC(C)C)C(=O)N[C@@H](CCC(N)=O)C(=O)N[C@@H](CC(=O)O)C(=O)N[C@H](C(=O)N[C@@H](Cc1c[nH]cn1)C(=O)N[C@@H](CC(N)=O)C(=O)N[C@@H](Cc1ccccc1)C(N)=O)C(C)C)C(C)C` [SEQ. ID. NO: 25] (H-SVS[X6]IQLMHNLGKHLNSMERVEWLRKKLQDVHNF-NH2; N-terminus assumed), for which the concentration giving a half-maximal response (EC50) on PTHR1 (setting [1]) is 22.9 ± 1.89 nM; at PTHR2, more than 1000 nM. In addition, at PTHR1, the “PTHR1 Activation: Derivative EC50/PTH EC50” value amounted to 60.26. For the same compound, at PTHR2, the “PTHR2 Activation: Derivative EC50/PTH EC50” value is “***”.
For `CC[C@H](C)[C@H](NC(=O)[C@H](CCC(=O)O)NC(=O)[C@H](CO)NC(=O)[C@@H](NC(=O)[C@@H](CN)CO)C(C)C)C(=O)N[C@@H](CCC(N)=O)C(=O)N[C@@H](CC(C)C)C(=O)N[C@@H](CCSC)C(=O)N[C@@H](Cc1c[nH]cn1)C(=O)N[C@@H](CC(N)=O)C(=O)N[C@@H](CC(C)C)C(=O)NCC(=O)N[C@@H](CCCCN)C(=O)N[C@@H](Cc1c[nH]cn1)C(=O)N[C@@H](CC(C)C)C(=O)N[C@@H](CC(N)=O)C(=O)N[C@@H](CO)C(=O)N[C@@H](CCSC)C(=O)N[C@@H](CCC(=O)O)C(=O)N[C@@H](CCCNC(=N)N)C(=O)N[C@H](C(=O)N[C@@H](CCC(=O)O)C(=O)N[C@@H](Cc1c[nH]c2ccccc12)C(=O)N[C@@H](CC(C)C)C(=O)N[C@@H](CCCNC(=N)N)C(=O)N[C@@H](CCCCN)C(=O)N[C@@H](CCCCN)C(=O)N[C@@H](CC(C)C)C(=O)N[C@@H](CCC(N)=O)C(=O)N[C@@H](CC(=O)O)C(=O)N[C@H](C(=O)N[C@@H](Cc1c[nH]cn1)C(=O)N[C@@H](CC(N)=O)C(=O)N[C@@H](Cc1ccccc1)C(N)=O)C(C)C)C(C)C` [SEQ. ID. NO: 22] (X8-VSEIQLMHNLGKHLNSMERVEWLRKKLQDVHNF-NH2), the half-maximal effective concentration (EC50) came to 0.35 ± 0.06 nM on PTHR1 (setting [1]) and 5.97 ± 1.21 nM on PTHR2.

Broadly, the EC50 is the concentration needed to bring the measured effect to its halfway point.
